According to ChEMBL document CHEMBL1148072, “Ellagitannins and complex tannins from Quercus petraea bark” (J Nat Prod, 1994):

What follows are compounds tested on Blood (assay: Astringency in human blood by heme-analysis relative to tannin).
Type: functional

Row | SMILES | Activity
1 | O=C1OC[C@H]2OC(=O)c3cc(O)c(O)c(O)c3-c3c(O)c(O)c(O)c4c3C(=O)O[C@H]([C@@H]3OC(=O)c5c-4c(O)c(O)c(O)c5[C@@H]3c3c(O)cc(O)c4c3O[C@H](c3ccc(O)c(O)c3)[C@@H](O)C4)[C@H]2OC(=O)c2cc(O)c(O)c(O)c2-c2c1cc(O)c(O)c2O [ACUTISSIMIN A] | 0.28
2 | O=C1OC[C@H]2OC(=O)c3cc(O)c(O)c(O)c3-c3c(O)c(O)c(O)c4c3C(=O)O[C@H]([C@@H]3OC(=O)c5c-4c(O)c(O)c(O)c5[C@@H]3c3c(O)cc(O)c4c3O[C@H](c3cc(O)c(O)c(O)c3)[C@@H](O)C4)[C@H]2OC(=O)c2cc(O)c(O)c(O)c2-c2c1cc(O)c(O)c2O [EUGENIGRANDIN A] | 0.46
3 | O=C1OC[C@H]2OC(=O)c3cc(O)c(O)c(O)c3-c3c(O)c(O)c(O)c4c3C(=O)O[C@H]([C@@H]3OC(=O)c5c-4c(O)c(O)c(O)c5[C@@H]3c3c(O)cc4c(c3O)C[C@H](O)[C@@H](c3cc(O)c(O)c(O)c3)O4)[C@H]2OC(=O)c2cc(O)c(O)c(O)c2-c2c1cc(O)c(O)c2O [GUAJAVIN B] | 0.44
4 | O=C1OC[C@H]2OC(O)[C@@H]3OC(=O)c4cc(O)c(O)c(O)c4-c4c(cc(O)c(O)c4O)C(=O)O[C@H]3[C@@H]2OC(=O)c2cc(O)c(O)c(O)c2-c2c1cc(O)c(O)c2O (stereo partly specified) [PEDUNCULAGIN] | 0.2
5 | O=C1OCC2OC(=O)c3cc(O)c(O)c(O)c3-c3c(O)c(O)c(O)c4c3C(=O)OC(C2OC(=O)c2cc(O)c(O)c(O)c2-c2c1cc(O)c(O)c2O)C1OC(=O)c2c-4c(O)c(O)c(O)c2C1O (stereo unspecified) [VESCALAGIN] | 0.24

Each compound was assayed on Caenorhabditis elegans (assay: Anthelmintic activity against Caenorhabditis elegans).
Type: functional, organism-based

Row | SMILES | IC50 [ppm]
6 | COC(=O)Nc1nc2cc(C(=O)c3ccccc3)ccc2[nH]1 [MEBENDAZOLE] | 10
